Laboratory results as given in patent US20240109917A1 (ACTELION PHARMACEUTICALS LTD, priority 2020, published 2024).

Legend:
[1] = target: Tb-labeled inactive PDGFRβ (Homo sapiens (Human), UniProt P09619); experiment: PDGFRβ LanthaScreen Assay; type: binding; settings: read-out: PDGFR Lantha IC50
[2] = target: VEGFR2, unphosphorylated (Homo sapiens (Human), UniProt P35968); experiment: VEGFR ADP GLO Assay; type: biochemical
Chain of VEGFR2, unphosphorylated (P35968 20-1356): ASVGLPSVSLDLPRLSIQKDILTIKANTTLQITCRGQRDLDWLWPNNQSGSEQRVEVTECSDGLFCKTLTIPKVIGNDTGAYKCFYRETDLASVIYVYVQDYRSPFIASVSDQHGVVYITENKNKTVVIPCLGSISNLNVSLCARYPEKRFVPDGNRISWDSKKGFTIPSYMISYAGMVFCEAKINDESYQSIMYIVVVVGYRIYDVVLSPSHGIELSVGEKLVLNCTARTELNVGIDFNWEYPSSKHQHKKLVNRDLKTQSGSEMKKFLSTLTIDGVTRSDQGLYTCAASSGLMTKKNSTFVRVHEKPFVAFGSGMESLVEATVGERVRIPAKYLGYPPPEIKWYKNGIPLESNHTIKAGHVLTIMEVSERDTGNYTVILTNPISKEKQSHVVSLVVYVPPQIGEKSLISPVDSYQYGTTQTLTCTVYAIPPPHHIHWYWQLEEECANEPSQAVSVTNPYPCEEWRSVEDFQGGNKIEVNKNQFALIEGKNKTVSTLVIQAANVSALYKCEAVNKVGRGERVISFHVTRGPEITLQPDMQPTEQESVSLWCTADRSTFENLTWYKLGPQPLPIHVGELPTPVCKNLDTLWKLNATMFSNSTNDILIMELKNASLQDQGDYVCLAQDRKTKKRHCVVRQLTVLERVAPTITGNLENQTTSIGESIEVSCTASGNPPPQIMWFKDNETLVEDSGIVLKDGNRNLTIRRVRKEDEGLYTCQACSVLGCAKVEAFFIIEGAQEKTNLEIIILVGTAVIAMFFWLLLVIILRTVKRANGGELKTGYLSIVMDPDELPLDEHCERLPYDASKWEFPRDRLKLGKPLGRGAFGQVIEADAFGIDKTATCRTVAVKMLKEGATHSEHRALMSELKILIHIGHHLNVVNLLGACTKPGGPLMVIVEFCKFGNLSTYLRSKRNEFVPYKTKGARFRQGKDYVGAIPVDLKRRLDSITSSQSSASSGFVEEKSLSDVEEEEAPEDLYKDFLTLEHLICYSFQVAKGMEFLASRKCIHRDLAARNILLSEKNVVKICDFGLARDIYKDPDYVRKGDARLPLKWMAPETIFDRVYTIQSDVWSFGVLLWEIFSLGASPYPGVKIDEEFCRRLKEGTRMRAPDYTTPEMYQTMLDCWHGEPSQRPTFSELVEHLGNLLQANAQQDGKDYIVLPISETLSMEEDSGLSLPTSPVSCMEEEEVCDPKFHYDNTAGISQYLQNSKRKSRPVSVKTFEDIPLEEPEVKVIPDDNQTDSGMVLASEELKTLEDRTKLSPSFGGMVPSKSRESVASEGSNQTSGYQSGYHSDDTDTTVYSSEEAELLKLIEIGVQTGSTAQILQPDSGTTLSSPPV

Chain of Tb-labeled inactive PDGFRβ (P09619 33-1106): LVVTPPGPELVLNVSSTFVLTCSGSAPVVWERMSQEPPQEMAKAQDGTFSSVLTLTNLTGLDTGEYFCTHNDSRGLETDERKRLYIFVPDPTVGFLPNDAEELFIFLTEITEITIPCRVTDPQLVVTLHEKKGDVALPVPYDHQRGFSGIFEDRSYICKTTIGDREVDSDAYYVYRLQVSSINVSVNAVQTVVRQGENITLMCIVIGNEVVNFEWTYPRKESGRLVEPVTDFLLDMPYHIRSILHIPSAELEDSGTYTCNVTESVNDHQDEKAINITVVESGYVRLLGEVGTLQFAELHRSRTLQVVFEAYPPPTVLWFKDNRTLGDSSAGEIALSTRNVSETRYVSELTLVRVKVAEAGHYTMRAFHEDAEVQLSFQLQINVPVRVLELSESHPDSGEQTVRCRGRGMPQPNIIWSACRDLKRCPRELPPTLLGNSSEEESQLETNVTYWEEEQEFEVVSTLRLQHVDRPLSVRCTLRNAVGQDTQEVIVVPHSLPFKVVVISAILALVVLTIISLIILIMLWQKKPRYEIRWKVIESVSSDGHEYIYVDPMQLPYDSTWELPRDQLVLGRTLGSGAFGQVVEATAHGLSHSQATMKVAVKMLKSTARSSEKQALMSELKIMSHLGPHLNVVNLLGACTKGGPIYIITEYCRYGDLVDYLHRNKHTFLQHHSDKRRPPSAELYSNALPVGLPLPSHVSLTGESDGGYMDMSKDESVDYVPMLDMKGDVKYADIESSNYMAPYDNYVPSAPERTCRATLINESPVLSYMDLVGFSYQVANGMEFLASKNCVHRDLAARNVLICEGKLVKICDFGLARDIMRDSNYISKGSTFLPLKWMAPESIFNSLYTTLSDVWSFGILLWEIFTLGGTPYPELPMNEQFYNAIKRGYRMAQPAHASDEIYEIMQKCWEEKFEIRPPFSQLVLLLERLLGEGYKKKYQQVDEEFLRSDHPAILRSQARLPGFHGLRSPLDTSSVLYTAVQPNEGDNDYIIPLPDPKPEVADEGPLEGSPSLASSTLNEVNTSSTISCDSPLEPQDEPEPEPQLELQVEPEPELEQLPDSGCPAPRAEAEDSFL

Row | SMILES | IC50 [1] [nM] | IC50 [2] [nM]
1 | COCCn1nc(C)c(-c2cn3ncc(C(=O)Nc4cc(NC(=O)CCN5CC6CCC(C5)O6)cnc4C)c3s2)c1C [Example 102, N-(5-(3-(8-oxa-3-azabicyclo[3.2.1]octan-3-yl)propanamido)-2-methylpyridin-3-yl)-2-(1-(2-methoxyethyl)-3,5-dimethyl-1H-pyrazol-4-yl)pyrazolo[5,1-b]thiazole-7-carboxamide] | 1 | > 7500
2 | COCCn1cc(-c2cn3ncc(C(=O)Nc4cc(C(=O)NCCN5CCC(F)(F)C5)cnc4C)c3s2)cn1 [Example 167, N-(5-((2-(3,3-difluoropyrrolidin-1-yl)ethyl)carbamoyl)-2-methylpyridin-3-yl)-2-(1-(2-methoxyethyl)-1H-pyrazol-4-yl)pyrazolo[5,1-b]thiazole-7-carboxamide] | 4.2 | > 7500
3 | Cc1ncc(C(=O)NCCN2CCC3(CCC3)C2)cc1NC(=O)c1cnn2cc(-c3cnn(C)c3)sc12 [Example 113, N-(5-((2-(6-azaspiro[3.4]octan-6-yl)ethyl)carbamoyl)-2-methylpyridin-3-yl)-2-(1-methyl-1H-pyrazol-4-yl)pyrazolo[5,1-b]thiazole-7-carboxamide] | 1.4 | > 7500
4 | Cc1ncc(C(=O)NCCN2CCCC23COC3)cc1NC(=O)c1cnn2cc(-c3cn(C)nc3C)sc12 [Example 176, N-(5-((2-(2-oxa-5-azaspiro[3.4]octan-5-yl)ethyl)carbamoyl)-2-methylpyridin-3-yl)-2-(1,3-dimethyl-1H-pyrazol-4-yl)pyrazolo[5,1-b]thiazole-7-carboxamide] | 3.1 | > 7500
5 | Cc1ncc(C(=O)NCCN2CCCC23COC3)cc1NC(=O)c1cnn2cc(-c3c(C)nn(C)c3C)sc12 [Example 179, N-(5-((2-(2-oxa-5-azaspiro[3.4]octan-5-yl)ethyl)carbamoyl)-2-methylpyridin-3-yl)-2-(1,3,5-trimethyl-1H-pyrazol-4-yl)pyrazolo[5,1-b]thiazole-7-carboxamide] | 6.9 | > 7500
6 | Cc1ncc(C(=O)NCCN2CC3(CCC3)C2)cc1NC(=O)c1cnn2cc(-c3cnn(C)c3)sc12 [Example 124, N-(5-((2-(2-azaspiro[3.3]heptan-2-yl)ethyl)carbamoyl)-2-methylpyridin-3-yl)-2-(1-methyl-1H-pyrazol-4-yl)pyrazolo[5,1-b]thiazole-7-carboxamide] | 19.6 | > 7500
7 | Cc1ncc(C(=O)NCCN2CCC3(CC3)C2)cc1NC(=O)c1cnn2cc(-c3cn(C)nc3C)sc12 [Example 177, N-(5-((2-(5-azaspiro[2.4]heptan-5-yl)ethyl)carbamoyl)-2-methylpyridin-3-yl)-2-(1,3-dimethyl-1H-pyrazol-4-yl)pyrazolo[5,1-b]thiazole-7-carboxamide] | 2.6 | > 7500
8 | Cc1ncc(NC(=O)CCN2CCCC23CC3)cc1NC(=O)c1cnn2cc(-c3cnn(C)c3)sc12 [Example 98] | 2.9 | > 7500
9 | CC(=O)Nc1ccnc(-c2cn3ncc(C(=O)Nc4cc(C(=O)NCCN5CC6CCC5CC6)cnc4C)c3s2)c1 [Example 146, N-(5-((2-(2-azabicyclo[2.2.2]octan-2-yl)ethyl)carbamoyl)-2-methylpyridin-3-yl)-2-(4-acetamidopyridin-2-yl)pyrazolo[5,1-b]thiazole-7-carboxamide] | 4.3 | > 7500
10 | Cc1ncc(C(=O)NCCN2CCC(F)(F)CC2)cc1NC(=O)c1cnn2cc(-c3cnn(C)c3)sc12 [Example 119, N-(5-((2-(4,4-difluoropiperidin-1-yl)ethyl)carbamoyl)-2-methylpyridin-3-yl)-2-(1-methyl-1H-pyrazol-4-yl)pyrazolo[5,1-b]thiazole-7-carboxamide] | 2 | > 7500
11 | CC(=O)Nc1cncc(-c2cn3ncc(C(=O)Nc4cc(C(=O)NCCN5CC6CCC5CC6)cnc4C)c3s2)c1 [Example 147, N-(5-((2-(2-azabicyclo[2.2.2]octan-2-yl)ethyl)carbamoyl)-2-methylpyridin-3-yl)-2-(5-acetamidopyridin-3-yl)pyrazolo[5,1-b]thiazole-7-carboxamide] | 6.9 | > 7500
12 | Cc1ncc(C(=O)NCCN2CCC3(CCOC3)C2)cc1NC(=O)c1cnn2cc(-c3cnn(C)c3)sc12 (stereo not shown) [Example 116, N-(5-((2-(2-oxa-7-azaspiro[4.4]nonan-7-yl)ethyl)carbamoyl)-2-methylpyridin-3-yl)-2-(1-methyl-1H-pyrazol-4-yl)pyrazolo[5,1-b]thiazole-7-carboxamide] | 12.7 | > 7500
13 | COCCn1cc(-c2cn3ncc(C(=O)Nc4cc(NC(=O)CCN5CC6CCC5CC6)cnc4C)c3s2)cn1 [Example 100, N-(5-(3-(2-azabicyclo[2.2.2]octan-2-yl)propanamido)-2-methylpyridin-3-yl)-2-(1-(2-methoxyethyl)-1H-pyrazol-4-yl)pyrazolo[5,1-b]thiazole-7-carboxamide] | 7.5 | > 7500
14 | Cc1ncc(C(=O)NCCN2CCC3(CC3)C2)cc1NC(=O)c1cnn2cc(-c3cccnc3)sc12 [Example 159, N-(5-((2-(5-azaspiro[2.4]heptan-5-yl)ethyl)carbamoyl)-2-methylpyridin-3-yl)-2-(pyridin-3-yl)pyrazolo[5,1-b]thiazole-7-carboxamide] | 21.6 | > 7500
15 | Cc1ncc(C(=O)NCCN2CCC3(CC3)C2)cc1NC(=O)c1cnn2cc(-c3cn(C)cn3)sc12 [Example 162, N-(5-((2-(5-azaspiro[2.4]heptan-5-yl)ethyl)carbamoyl)-2-methylpyridin-3-yl)-2-(1-methyl-1H-imidazol-4-yl)pyrazolo[5,1-b]thiazole-7-carboxamide] | 7.7 | > 7500
16 | Cc1ncc(C(=O)NCCN2CCC3(CC3)C2)cc1NC(=O)c1cnn2cc(-c3ccncc3)sc12 [Example 153, N-(5-((2-(5-azaspiro[2.4]heptan-5-yl)ethyl)carbamoyl)-2-methylpyridin-3-yl)-2-(pyridin-4-yl)pyrazolo[5,1-b]thiazole-7-carboxamide] | 18 | > 7500
17 | Cc1ncc(NC(=O)CCN2CC(C)(C)C2)cc1NC(=O)c1cnn2cc(-c3cnn(C)c3)sc12 [Example 96, N-(5-(3-(3,3-dimethylazetidin-1-yl)propanamido)-2-methylpyridin-3-yl)-2-(1-methyl-1H-pyrazol-4-yl)pyrazolo[5,1-b]thiazole-7-carboxamide] | 28.4 | > 7500
18 | Cc1ncc(C(=O)NCCN2CCCC2(C)C)cc1NC(=O)c1cnn2cc(-c3cnn(C)c3C)sc12 [Example 173, 2-(1,5-dimethyl-1H-pyrazol-4-yl)-N-(5-((2-(2,2-dimethylpyrrolidin-1-yl)ethyl)carbamoyl)-2-methylpyridin-3-yl)pyrazolo[5,1-b]thiazole-7-carboxamide] | 3.1 | > 7500
19 | Cc1ncc(C(=O)NCCN2C3CCC2CC3)cc1NC(=O)c1cnn2cc(-c3cnn(C)c3C)sc12 [Example 172, N-(5-((2-(7-azabicyclo[2.2.1]heptan-7-yl)ethyl)carbamoyl)-2-methylpyridin-3-yl)-2-(1,5-dimethyl-1H-pyrazol-4-yl)pyrazolo[5,1-b]thiazole-7-carboxamide] | 3 | > 7500
20 | Cc1ncc(C(=O)NCCN2CCCC2(C)C)cc1NC(=O)c1cnn2cc(-c3cnn(C)c3)sc12 [Example 8, N-(5-((2-(2,2-dimethylpyrrolidin-1-yl)ethyl)carbamoyl)-2-methylpyridin-3-yl)-2-(1-methyl-1H-pyrazol-4-yl)pyrazolo[5,1-b]thiazole-7-carboxamide] | 4.7 | > 10000
21 | Cc1ncc(C(=O)NCCN2CC(C)(C)C2)cc1NC(=O)c1cnn2cc(-c3ccncc3)sc12 [Example 155, N-(5-((2-(3,3-dimethylazetidin-1-yl)ethyl)carbamoyl)-2-methylpyridin-3-yl)-2-(pyridin-4-yl)pyrazolo[5,1-b]thiazole-7-carboxamide] | 39.4 | > 7500
22 | Cc1ncc(C(=O)NCCN2CC3CC(C3)C2)cc1NC(=O)c1cnn2cc(-c3cnn(C)c3)sc12 [Example 5, N-(5-((2-(3-azabicyclo[3.1.1]heptan-3-yl)ethyl)carbamoyl)-2-methylpyridin-3-yl)-2-(1-methyl-1H-pyrazol-4-yl)pyrazolo[5,1-b]thiazole-7-carboxamide] | 5.8 | > 7500
23 | Cc1ncc(C(=O)NCCN2CC3COCC3C2)cc1NC(=O)c1cnn2cc(-c3cnn(C)c3)sc12 (stereo not shown) [Example 112, 2-(1-methyl-1H-pyrazol-4-yl)-N-(2-methyl-5-((2-(tetrahydro-1H-furo[3,4-c]pyrrol-5 (3H)-yl)ethyl)carbamoyl)pyridin-3-yl)pyrazolo[5,1-b]thiazole-7-carboxamide] | 12.6 | > 7500
24 | COCCN(CCNC(=O)c1cnc(C)c(NC(=O)c2cnn3cc(-c4cnn(C)c4)sc23)c1)C1CCC1 [Example 115, N-(5-((2-(cyclobutyl(2-methoxyethyl)amino)ethyl)carbamoyl)-2-methylpyridin-3-yl)-2-(1-methyl-1H-pyrazol-4-yl)pyrazolo[5,1-b]thiazole-7-carboxamide] | 4.7 | > 7500
25 | Cc1ncc(C(=O)NCCN2CCCC2(C)C)cc1NC(=O)c1cnn2cc(-c3cn(C)nc3C)sc12 [Example 174, 2-(1,3-dimethyl-1H-pyrazol-4-yl)-N-(5-((2-(2,2-dimethylpyrrolidin-1-yl)ethyl)carbamoyl)-2-methylpyridin-3-yl)pyrazolo[5,1-b]thiazole-7-carboxamide] | 2.5 | > 7500
26 | Cc1ncc(C(=O)NCCN2CCC(F)(F)CC2)cc1NC(=O)c1cnn2cc(-c3cccnc3)sc12 [Example 157, N-(5-((2-(4,4-difluoropiperidin-1-yl)ethyl)carbamoyl)-2-methylpyridin-3-yl)-2-(pyridin-3-yl)pyrazolo[5,1-b]thiazole-7-carboxamide] | 5.9 | > 7500
